The source of these data is US20110034703A1, “CRYSTAL FORMS OF N-[2-(DIETHYLAMINO)ETHYL]-5-[(5-FLUORO-1,2-DIHYDRO-2-OXO-3H-INDOL-3-YLIDENE)METHYL]-2,4-DIMETHYL-1H-PYRROLE-3-CARBOXAMIDE AND METHODS FOR THEIR PREPARATION” (ratiopharm GmbH, priority 2008, published 2011).

Structures are written as SMILES. “Also recorded” adds a separate entry of the source.

The nature of the data set: Dynamic moisture sorption gravimetry (DMSG), hygroscopicity. It is filed as physicochemical. To be noted: for hygroscopicity (in words): DMSG data; for moisture sorption referred to the weight of the sample: DMSG, change in RH of 5% per hour.

Method: DMSG was performed using an SPS11-100n instrument (Projekt Messtechnik) at a constant temperature of 25° C. and a change in RH of 5% per hour including isohumid conditions for 5 hours at 0% RH and for 2 hours at 50% RH.

Turning to `CCN(CC)CCNC(=O)c1c(C)[nH]c(/C=C2\C(=O)Nc3ccc(F)cc32)c1C` [Polymorph I, N-[2-(diethylamino)ethyl]-5-[(5-fluoro-1,2-dihydro-2-oxo-3H-indol-3-ylidene)methyl]-2,4-dimethyl-1H-pyrrole-3-carboxamide], the “hygroscopicity (in words)” value is recorded as “low hygroscopicity; also recorded: only very slightly hygroscopic”. Moreover, the “hygroscopicity (in words)” value (listed as polymorph I) is on record as “only slightly hygroscopic”. The “hygroscopicity (in words)” value (listed as polymorphic form I) is “very low hygroscopicity”. The “moisture sorption referred to the weight of the sample” value (25° C.) is reported as “about 1%”.

As to `CCN(CC)CCNC(=O)c1c(C)[nH]c(/C=C2\C(=O)Nc3ccc(F)cc32)c1C` [Polymorph III, N-[2-(diethylamino)ethyl]-5-[(5-fluoro-1,2-dihydro-2-oxo-3H-indol-3-ylidene)methyl]-2,4-dimethyl-1H-pyrrole-3-carboxamide], the “hygroscopicity (in words)” value was “very low hygroscopicity; also recorded: not hygroscopic at all”. Besides, where the note is “listed as polymorphic form III”, the “hygroscopicity (in words)” value is “not hygroscopic”. Also, the “weight gain under DMSG” value (even at a relative humidity of 95%, 25° C.) is given as “does not gain weight”.

For `CCN(CC)CCNC(=O)c1c(C)[nH]c(/C=C2\C(=O)Nc3ccc(F)cc32)c1C` [Polymorph II, N-[2-(diethylamino)ethyl]-5-[(5-fluoro-1,2-dihydro-2-oxo-3H-indol-3-ylidene)methyl]-2,4-dimethyl-1H-pyrrole-3-carboxamide], the “hygroscopicity (in words)” value was “clearly hygroscopic”. For the same molecule, the “hygroscopicity (in words)” value (listed as polymorphic form II) is listed as “slightly more hygroscopic; also recorded: some hygroscopicity”. The “moisture sorption referred to the weight of the sample” value (25° C., listed as polymorphic form II) is reported as “more than 6%”.
